Assay results: US20240358693A1, “METHODS OF TREATING PAIN” (Aisa Pharma, Inc., priority 2023, published 2024)

Tested on: participants with SSc-RP
Assay: Average duration of weekly RP attacks (minutes)
Type: in vivo, human
Description: The absolute change in average duration of weekly RP attacks from baseline to the end of each dosing period was and will be a secondary outcome variable. The sponsor-developed participant-informed diary was and will be used to record data. Average duration of weekly RP attacks is defined as the total duration of RP attacks divided by total number of RP attacks within the last 7 days of each dosing period. Total duration of RP attacks during the last 7 days of screening period divided by the total number of RP attacks will be used as baseline for the analysis of all periods. The variable will be calculated similar to frequency data as before.

[1] = Cilnidipine 20 mg, Excluding Outliers, ITT Population - Part A
[2] = Cilnidipine 20 mg, Excluding Outliers, by Baseline RCS, subgroup 1, ITT Population - Part A
[3] = Cilnidipine 20 mg, by Baseline RCS, subgroup 1, ITT Population - Part A
[4] = Pooled Cilnidipine 10 mg and Cilnidipine 10 mg + Tadalafil 5 mg, n=3, Excluding Outliers, ITT Part A
[5] = Pooled Cilnidipine 10 mg and Cilnidipine 10 mg + Tadalafil 5 mg, n=3, ITT Part A
[6] = Pooled Cilnidipine 10 mg and Cilnidipine 10 mg + Tadalafil 5 mg, Baseline RCS subgroup 1 (unnamed), ITT Part A
[7] = Pooled Cilnidipine 10 mg and Cilnidipine 10 mg + Tadalafil 5 mg, Baseline RCS subgroup 2 (unnamed), ITT Part A
[8] = Pooled Cilnidipine 10 mg and Cilnidipine 10 mg + Tadalafil 5 mg, Excluding Outliers, Baseline RCS subgroup 1 (unnamed), ITT Part A
[9] = Pooled Cilnidipine 10 mg and Cilnidipine 10 mg + Tadalafil 5 mg, Excluding Outliers, Baseline RCS subgroup 2 (unnamed), ITT Part A
[10] = Pooled Cilnidipine 10 mg and Cilnidipine 10 mg + Tadalafil 5 mg, Excluding Outliers, ITT Population - Part A
[11] = Pooled Cilnidipine 10 mg and Cilnidipine 10 mg + Tadalafil 5 mg, Excluding Outliers, by Baseline RCS, subgroup 1, ITT Population - Part A

COCCOC(=O)C1=C(C)NC(C)=C(C(=O)OC/C=C/c2ccccc2)C1c1cccc([N+](=O)[O-])c1 (centres unmarked) [Cilnidipine, cilnidipine]
Average Duration of Weekly RP Attacks (All Attacks) Change from Baseline, Median [1]: -1.09 min
Average Duration of Weekly RP Attacks (All Attacks) Percent Change from Baseline, Mean [1]: −24.97%
Average Duration of Weekly RP Attacks (All Attacks) Percent Change from Baseline, Median [1]: −24.97%
Average Duration of Weekly RP Attacks (All Attacks), Mean [1]: 16.73 min
Average Duration of Weekly RP Attacks (All Attacks), Median [1]: 16.73 min
Average Duration of Weekly RP Attacks (All Attacks) Change from Baseline, Mean [2]: -1.09 min
Average Duration of Weekly RP Attacks (All Attacks) Change from Baseline, Median [2]: -1.09 min
Average Duration of Weekly RP Attacks (All Attacks) Percent Change from Baseline, Mean [2]: −24.97%
Average Duration of Weekly RP Attacks (All Attacks) Percent Change from Baseline, Median [2]: −24.97%
Average Duration of Weekly RP Attacks (All Attacks), Mean [2]: 16.73 min
Average Duration of Weekly RP Attacks (All Attacks), Median [2]: 16.73 min
Average Duration of Weekly RP Attacks (All Attacks) Change from Baseline, Mean (Cilnidipine 20 mg, ITT Part A): -1.09 min
Average Duration of Weekly RP Attacks (All Attacks) Change from Baseline, Median (Cilnidipine 20 mg, ITT Part A): -1.09 min
Average Duration of Weekly RP Attacks (All Attacks) Percent Change from Baseline, Mean (Cilnidipine 20 mg, ITT Part A): −24.97%
Average Duration of Weekly RP Attacks (All Attacks) Percent Change from Baseline, Median (Cilnidipine 20 mg, ITT Part A): −24.97%
Average Duration of Weekly RP Attacks (All Attacks), Mean (Cilnidipine 20 mg, ITT Part A): 16.73 min
Average Duration of Weekly RP Attacks (All Attacks), Median (Cilnidipine 20 mg, ITT Part A): 16.73 min
Average Duration of Weekly RP Attacks (All Attacks) Change from Baseline, Mean [3]: -1.09 min
Average Duration of Weekly RP Attacks (All Attacks) Change from Baseline, Median [3]: -1.09 min
Average Duration of Weekly RP Attacks (All Attacks) Percent Change from Baseline, Mean [3]: −24.97%
Average Duration of Weekly RP Attacks (All Attacks) Percent Change from Baseline, Median [3]: −24.97%
Average Duration of Weekly RP Attacks (All Attacks), Mean [3]: 16.73 min
Average Duration of Weekly RP Attacks (All Attacks), Median [3]: 16.73 min
Duration (Cilnidipine (20 mg) (n = 3)): −20%
Mean % reduction in duration (Cilnidipine (20 mg) (n = 3)): 20.0%
Mean duration of attack at baseline (Cilnidipine (20 mg) (n = 3)): 19.4
Average Duration of Weekly Symptomatic RP Attacks, Change from Baseline, Mean [4]: -12.11 min
Average Duration of Weekly Symptomatic RP Attacks, Change from Baseline, Median [4]: -16.74 min
Average Duration of Weekly Symptomatic RP Attacks, Mean [4]: 29.46 min
Average Duration of Weekly Symptomatic RP Attacks, Median [4]: 31.64 min
Average Duration of Weekly Symptomatic RP Attacks, Percent Change from Baseline, Mean [4]: −22.40%
Average Duration of Weekly Symptomatic RP Attacks, Percent Change from Baseline, Median [4]: −33.84%
Average Duration of Weekly Symptomatic RP Attacks, Change from Baseline, Mean [5]: -12.11 min
Average Duration of Weekly Symptomatic RP Attacks, Change from Baseline, Median [5]: -16.74 min
Average Duration of Weekly Symptomatic RP Attacks, Mean [5]: 29.46 min
Average Duration of Weekly Symptomatic RP Attacks, Median [5]: 31.64 min
Average Duration of Weekly Symptomatic RP Attacks, Percent Change from Baseline, Mean [5]: −22.40%
Average Duration of Weekly Symptomatic RP Attacks, Percent Change from Baseline, Median [5]: −33.84%
Average Duration of Weekly Symptomatic RP Attacks, Change from Baseline, Mean [6]: -8.26 min
Average Duration of Weekly Symptomatic RP Attacks, Change from Baseline, Median [6]: -8.26 min
Average Duration of Weekly Symptomatic RP Attacks, Mean [6]: 24.82 min
Average Duration of Weekly Symptomatic RP Attacks, Median [6]: 24.82 min
Average Duration of Weekly Symptomatic RP Attacks, Percent Change from Baseline, Mean [6]: −16.67%
Average Duration of Weekly Symptomatic RP Attacks, Percent Change from Baseline, Median [6]: −16.67%
Average Duration of Weekly Symptomatic RP Attacks, Change from Baseline, Mean [7]: -19.82 min
Average Duration of Weekly Symptomatic RP Attacks, Change from Baseline, Median [7]: -19.82 min
Average Duration of Weekly Symptomatic RP Attacks, Mean [7]: 38.75 min
Average Duration of Weekly Symptomatic RP Attacks, Median [7]: 38.75 min
Average Duration of Weekly Symptomatic RP Attacks, Percent Change from Baseline, Mean [7]: −33.84%
Average Duration of Weekly Symptomatic RP Attacks, Percent Change from Baseline, Median [7]: −33.84%
Average Duration of Weekly Symptomatic RP Attacks, Change from Baseline, Mean [8]: -8.26 min
Average Duration of Weekly Symptomatic RP Attacks, Change from Baseline, Median [8]: -8.26 min
Average Duration of Weekly Symptomatic RP Attacks, Mean [8]: 24.82 min
Average Duration of Weekly Symptomatic RP Attacks, Median [8]: 24.82 min
Average Duration of Weekly Symptomatic RP Attacks, Percent Change from Baseline, Mean [8]: −16.67%
Average Duration of Weekly Symptomatic RP Attacks, Percent Change from Baseline, Median [8]: −16.67%
Average Duration of Weekly Symptomatic RP Attacks, Change from Baseline, Mean [9]: -19.82 min
Average Duration of Weekly Symptomatic RP Attacks, Change from Baseline, Median [9]: -19.82 min
Average Duration of Weekly Symptomatic RP Attacks, Mean [9]: 38.75 min
Average Duration of Weekly Symptomatic RP Attacks, Median [9]: 38.75 min
Average Duration of Weekly Symptomatic RP Attacks, Percent Change from Baseline, Mean [9]: −33.84%
Average Duration of Weekly Symptomatic RP Attacks, Percent Change from Baseline, Median [9]: −33.84%
Average Duration of Weekly RP Attacks (All Attacks) Change from Baseline, Mean [10]: -9.54 min
Average Duration of Weekly RP Attacks (All Attacks) Change from Baseline, Median [10]: -8.48 min
Average Duration of Weekly RP Attacks (All Attacks) Percent Change from Baseline, Mean [10]: −19.10%
Average Duration of Weekly RP Attacks (All Attacks) Percent Change from Baseline, Median [10]: −21.20%
Average Duration of Weekly RP Attacks (All Attacks), Mean [10]: 27.90 min
Average Duration of Weekly RP Attacks (All Attacks), Median [10]: 31.52 min
Average Duration of Weekly RP Attacks (All Attacks) Change from Baseline, Mean [11]: -4.13 min
Average Duration of Weekly RP Attacks (All Attacks) Change from Baseline, Median [11]: -4.13 min
Average Duration of Weekly RP Attacks (All Attacks) Percent Change from Baseline, Mean [11]: −9.97%
Average Duration of Weekly RP Attacks (All Attacks) Percent Change from Baseline, Median [11]: −9.97%
Average Duration of Weekly RP Attacks (All Attacks), Mean [11]: 24.76 min
Average Duration of Weekly RP Attacks (All Attacks), Median [11]: 24.76 min
